According to ChEMBL document CHEMBL5230138, “Design, synthesis, and antiviral activity of a series of CD4-mimetic small-molecule HIV-1 entry inhibitors” (Bioorg Med Chem, 2021):
pIC50: −log10 of the molar value.

Experiments:
[1] = system: TZM; test: (§1) Cytotoxicity against human TZM-bl cells assessed as reduction in cell viability incubated for 3 days by MTS assay; assay type: toxicity, cell-based; settings: tzm, 72 h, time 3 day
[2] = system: Human immunodeficiency virus 1; test: Antiviral activity against HIV1 Env pseudotype from the lab-adapted CXCR4-tropic HIV-1 HXB-2 infected in human TZM-bl cells preincubated for 30 min followed by viral infection and measured after 3 days by luciferase-based single-cycle infection assay; assay type: functional, organism-based; settings: for pIC50: Human immunodeficiency virus 1, HXB-2, TZM-bl, read-out: IC50; for IC50: tzm-bl
[3] = Selectivity index, ratio of CC50 for HIV1 human TZM-bl cells to EC50 for HIV1 ENV pseudotype from the lab-adapted CXCR4-tropic HIV-1 HXB-2 infected in human TZM-bl cells; assay type: toxicity, cell-based; settings: for selectivity ratio: TZM-bl cells, read-out: Selectivity Index
[4] = as §1; assay type: toxicity, cell-based; settings: TZM-bl cells, time 3 day
[5] = system: Human immunodeficiency virus 1; test: microbe, parasite or virus in culture; settings: Human immunodeficiency virus 1, HXB-2 subtype A, U87.CD4.CXCR4, 72 h

| SMILES | CC50 ([1]; read-out: CC50) [µM] | pIC50 [2] | selectivity ratio [3] | other results |
| --- | --- | --- | --- | --- |
| NC[C@H](NC(=O)c1ccc(-c2ccc(C(F)(F)F)cc2)[nH]1)c1ncc(COCC(O)CO)s1 (some centres not stated) | > 61.9 | < 4.89 | – | Selectivity Index [3]: Not Determined(Insoluble) |
| NC[C@H](NC(=O)c1ccc(-c2ccc(C(F)(F)F)cc2C(F)(F)F)[nH]1)c1nc(CO)cs1 | 33.4 | 5.38 | 7.9 | – |
| Cc1cc(-c2ccc(C(F)(F)F)c(F)c2)[nH]c1C(=O)N[C@@H](CN)c1nc(CO)cs1 | 18.5 | 6.27 | 24.7 | – |
| NC[C@H](NC(=O)c1ccc(-c2ccc(C(F)(F)F)c(F)c2)[nH]1)c1nc(C(O)CO)cs1 (some centres not stated) | 72.4 | 6.26 | 132 | – |
| NC[C@H](NC(=O)c1ccc(-c2ccc(C(F)(F)F)c(F)c2)[nH]1)c1ncc(C(O)CO)s1 (some centres not stated) | 98 | 5.21 | 15.8 | – |
| NC[C@H](NC(=O)c1ccc(-c2ccc(C(F)(F)F)cc2F)[nH]1)c1nc(CCO)cs1 | 39.6 | – | – | – |
| CC(C)(N)[C@@H](NC(=O)c1ccc(-c2ccc(C(F)(F)F)cc2)[nH]1)c1nc(CO)cs1 | 19.9 | 5.89 | 15.3 | – |
| NC[C@@H](NC(=O)c1ccc(-c2ccc(C(F)(F)F)cc2F)[nH]1)c1nc(CO)cs1 | 26.8 | 6.21 | 43.9 | – |
| NC[C@H](NC(=O)c1ccc(-c2ccc(C(F)(F)F)c(F)c2)[nH]1)c1nc(CCO)cs1 | 24.4 | 6.70 | 122 | – |
| CC(CN)(NC(=O)c1ccc(-c2cc(F)c(Cl)c(F)c2)[nH]1)c1nc(CO)cs1 (racemic) | 47.7 | 5.59 | 18.3 | – |
| NC[C@@H](NC(=O)c1ccc(-c2ccc(C(F)(F)F)c(F)c2)[nH]1)c1nc(C(O)CO)cs1 (some centres not stated) | 56.3 | 5.62 | 23.4 | – |
| NC[C@@H](NC(=O)c1ccc(-c2ccc(C(F)(F)F)cc2F)[nH]1)c1nc(CCO)cs1 | 23.4 | – | – | – |
| NC[C@H](NC(=O)c1ccc(-c2cc(F)c(Cl)c(F)c2)[nH]1)c1nc(CCO)cs1 | – | 6.82 | 218 | – |
| COC(=O)c1csc([C@@H](CN)NC(=O)c2ccc(-c3ccc(C(F)(F)F)c(F)c3)[nH]2)n1 | 23.4 | 5.31 | 4.8 | – |
| NC[C@H](NC(=O)c1ccc(-c2ccc(C(F)(F)F)c(F)c2)[nH]1)c1nc(CCCO)cs1 | 22.6 | 6.60 | 90.4 | – |
| NC[C@@H](NC(=O)c1ccc(-c2ccc(C(F)(F)F)cc2C(F)(F)F)[nH]1)c1nc(CO)cs1 | 37.6 | 5.20 | 5.9 | – |
| CC(C)(N)[C@H](NC(=O)c1ccc(-c2cc(F)c(Cl)c(F)c2)[nH]1)c1nc(CO)cs1 | 16 | 6.92 | 105 | – |
| NC[C@H](NC(=O)c1ccc(-c2ccc(C(F)(F)F)cc2F)[nH]1)c1nc(CO)cs1 | 25.7 | 6.73 | 137 | – |
| NC[C@@H](NC(=O)c1ccc(-c2ccc(C(F)(F)F)c(F)c2)[nH]1)c1nc(CCO)cs1 | 24.2 | 6.29 | 47.4 | – |
| N#Cc1ccc(-c2ccc(C(=O)N[C@H](CN)c3nc(CO)cs3)[nH]2)cc1 | > 82 | < 4.80 | – | Selectivity Index [3]: Not Determined(Insoluble) |

| SMILES | CC50 ([1]; read-out: CC50) [µM] | pIC50 [2] | selectivity ratio [3] | other results |
| --- | --- | --- | --- | --- |
| NC[C@@H](NC(=O)c1ccc(-c2ccc(C(F)(F)F)cc2)[nH]1)c1ncc(COCC(O)CO)s1 (some centres not stated) | – | 5.68 | 38 | CC50 at 72 h [4]: 80 µM |
| CC(C)(N)[C@H](NC(=O)c1ccc(-c2ccc(C(F)(F)F)cc2)[nH]1)c1nc(CO)cs1 | 17.5 | 6.89 | – | – |
| Cc1cc(-c2ccc(C(F)(F)F)c(F)c2)[nH]c1C(=O)N[C@@H](CN)c1ncc(CO)s1 | 10.3 | 6.82 | 49.5 | – |
| CC(CN)(NC(=O)c1ccc(-c2ccc(C(F)(F)F)c(F)c2)[nH]1)c1nc(CO)cs1 (racemic) | 45.3 | 5.80 | 28 | – |
| CC(C)(N)[C@H](NC(=O)c1ccc(-c2ccc(C(F)(F)F)cc2)[nH]1)c1ncc(CO)s1 | 25.1 | 6.64 | 109 | – |
| COC(=O)c1csc([C@H](CN)NC(=O)c2ccc(-c3ccc(C(F)(F)F)c(F)c3)[nH]2)n1 | 41.6 | 5.54 | 14.3 | – |
| NC[C@H](NC(=O)c1ccc(-c2ccc(C(F)(F)F)c(F)c2)[nH]1)c1nc(C(=O)O)cs1 | – | – | – | CC50 [1]: Not Determined(Insoluble); IC50 [2]: Not Determined(Insoluble); Selectivity Index [3]: Not Determined(Insoluble) |
| Cc1cc(-c2ccc(C(F)(F)F)c(F)c2)[nH]c1C(=O)N[C@H](CN)c1ncc(CO)s1 | 10.4 | 6.68 | – | – |
| NC[C@@H](NC(=O)c1ccc(-c2ccc(C(F)(F)F)c(F)c2)[nH]1)c1nc(C(=O)O)cs1 | – | – | – | CC50 [1]: Not Determined(Insoluble); IC50 [2]: Not Determined(Insoluble); Selectivity Index [3]: Not Determined(Insoluble) |
| Cc1cc(-c2ccc(C(F)(F)F)c(F)c2)[nH]c1C(=O)N[C@H](CN)c1nc(CO)cs1 | 14.1 | 6.24 | 20.6 | – |
| CC(C)(N)[C@@H](NC(=O)c1ccc(-c2cc(F)c(Cl)c(F)c2)[nH]1)c1nc(CO)cs1 | 15.8 | 6.82 | 135 | – |
| NC[C@@H](NC(=O)c1ccc(-c2ccc(C(F)(F)F)cc2)[nH]1)c1ncc(CO)s1 | – | – | – | pIC50 [5]: 6.96 |
| NC[C@@H](NC(=O)c1ccc(-c2ccc(C(F)(F)F)c(F)c2)[nH]1)c1nc(C(N)=O)cs1 | 25.9 | 5.64 | 11.3 | – |
| NC[C@@H](NC(=O)c1ccc(-c2ccc(C(F)(F)F)c(F)c2)[nH]1)c1ncc(C(O)CO)s1 (some centres not stated) | 70.5 | 6.23 | 119 | – |
| CC(C)(N)[C@@H](NC(=O)c1ccc(-c2ccc(C(F)(F)F)cc2)[nH]1)c1ncc(CO)s1 | 23.1 | 6.17 | 34 | – |
| NC[C@@H](NC(=O)c1ccc(-c2ccc(C(F)(F)F)c(F)c2)[nH]1)c1nc(CCCO)cs1 | 38 | 5.46 | 10.8 | – |
| N#Cc1ccc(-c2ccc(C(=O)N[C@@H](CN)c3nc(CO)cs3)[nH]2)cc1 | – | < 4.80 | – | Selectivity Index [3]: Not Determined(Insoluble) |
| NC[C@@H](NC(=O)c1ccc(-c2cc(F)c(Cl)c(F)c2)[nH]1)c1nc(CCO)cs1 | 32.8 | 6.01 | 33.5 | – |
| NC[C@H](NC(=O)c1ccc(-c2ccc(C(F)(F)F)c(F)c2)[nH]1)c1nc(C(N)=O)cs1 | > 52 | < 5.00 | 34.2 | – |
